Among the data in ChEMBL document CHEMBL1201862, “PubChem BioAssay data set” (2004) are AC50, IC50 and EC50 values, retold here.

The nature of test [1]: Luminescence Cell-Based Dose Retest to Confirm Inhibitors of Cancer Stem Cells. [Related pubchem assays (depositor defined):AID2717, AID2721]. The format is functional. The note with it: Homo sapiens.
Test [2] addresses T1, Protein skinhead-1 (Caenorhabditis elegans, UniProt P34707).
T1 sequence (P34707 whole entry): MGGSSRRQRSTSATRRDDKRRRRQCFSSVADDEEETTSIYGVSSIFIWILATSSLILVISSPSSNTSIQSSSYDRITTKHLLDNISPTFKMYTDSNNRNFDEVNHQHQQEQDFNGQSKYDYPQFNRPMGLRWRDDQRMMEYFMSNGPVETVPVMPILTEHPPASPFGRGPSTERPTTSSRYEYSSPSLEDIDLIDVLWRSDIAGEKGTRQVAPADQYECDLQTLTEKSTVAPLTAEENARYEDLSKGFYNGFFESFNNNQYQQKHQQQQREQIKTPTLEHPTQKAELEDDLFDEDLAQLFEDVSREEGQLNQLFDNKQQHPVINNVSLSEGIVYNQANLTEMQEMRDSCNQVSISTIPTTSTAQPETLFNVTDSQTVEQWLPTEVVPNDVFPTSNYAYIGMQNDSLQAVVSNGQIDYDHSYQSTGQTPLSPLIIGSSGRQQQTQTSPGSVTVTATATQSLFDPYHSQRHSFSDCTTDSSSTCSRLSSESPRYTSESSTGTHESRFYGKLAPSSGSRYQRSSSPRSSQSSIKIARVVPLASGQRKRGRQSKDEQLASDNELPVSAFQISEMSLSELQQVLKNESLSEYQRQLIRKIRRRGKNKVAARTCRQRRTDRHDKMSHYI
The format is functional.

In test [3] the target is T2, Heat shock factor protein 1 (Mus musculus, UniProt P38532).
T2 sequence (P38532 whole entry): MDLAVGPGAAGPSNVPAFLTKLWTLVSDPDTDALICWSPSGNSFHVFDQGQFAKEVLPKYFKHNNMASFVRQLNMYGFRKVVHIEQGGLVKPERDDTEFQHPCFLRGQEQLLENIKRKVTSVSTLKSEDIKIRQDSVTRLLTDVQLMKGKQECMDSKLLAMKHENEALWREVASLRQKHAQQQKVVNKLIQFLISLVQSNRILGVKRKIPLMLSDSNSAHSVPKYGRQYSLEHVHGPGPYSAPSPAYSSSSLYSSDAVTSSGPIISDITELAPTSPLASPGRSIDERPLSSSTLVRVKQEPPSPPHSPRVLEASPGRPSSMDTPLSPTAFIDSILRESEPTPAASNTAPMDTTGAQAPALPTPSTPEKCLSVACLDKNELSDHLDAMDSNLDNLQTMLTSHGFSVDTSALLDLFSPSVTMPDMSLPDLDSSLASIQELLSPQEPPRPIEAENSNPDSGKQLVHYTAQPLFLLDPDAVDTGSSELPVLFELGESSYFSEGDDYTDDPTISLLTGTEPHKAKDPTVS
Kind of test: decrease of HSF1-responsive luciferase luminescence – cell-based, NIH3T3, dose retest, confirmation (AID 2382).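 Note: NIH3T3 fibroblasts with HSF1-driven luciferase reporter stressed by proteasome inhibitor MG132; luminescence from HSF1-driven luciferase expression after 8 hours of MG132 stress.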 The format is functional.

For test [4], the target named is T3, Cytochrome P450 1A2 (Homo sapiens, UniProt P05177).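 Note: PubChem cytochrome P450 panel assay, CYP1A2 panel member.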
T3 sequence (P05177 whole entry): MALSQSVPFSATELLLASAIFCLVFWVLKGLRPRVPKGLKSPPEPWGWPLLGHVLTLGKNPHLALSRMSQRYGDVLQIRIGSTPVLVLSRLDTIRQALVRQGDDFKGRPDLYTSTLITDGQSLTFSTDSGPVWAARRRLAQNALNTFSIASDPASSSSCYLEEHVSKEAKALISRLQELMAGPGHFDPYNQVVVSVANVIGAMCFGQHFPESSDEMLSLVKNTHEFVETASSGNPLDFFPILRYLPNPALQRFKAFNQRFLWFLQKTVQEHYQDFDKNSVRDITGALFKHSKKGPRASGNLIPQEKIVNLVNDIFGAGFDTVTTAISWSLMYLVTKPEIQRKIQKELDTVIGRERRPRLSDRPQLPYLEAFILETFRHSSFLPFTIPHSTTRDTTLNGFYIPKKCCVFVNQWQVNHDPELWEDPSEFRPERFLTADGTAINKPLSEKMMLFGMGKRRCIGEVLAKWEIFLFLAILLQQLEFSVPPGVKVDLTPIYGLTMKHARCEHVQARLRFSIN

Test [5] has as its target Cytochrome P450 2C19 (Homo sapiens, UniProt P33261). Briefly: Cytochrome panel assay with activity outcomes. Panel member name: p450-cyp2c19 Compounds with AC50 equal or less than 10 uM are considered active. The format is functional. The note with it: read-out: AC50.
Test [6] concerns the target Cytochrome P450 2C9 (Homo sapiens, UniProt P11712).
The target of test [7] is Cytochrome P450 2D6 (Homo sapiens, UniProt P10635).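 Note: CYP2D6 member of a cytochrome P450 panel assay.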
Test [8] relates to Streptococcus. Briefly: GAS UMAA2166 growth inhibition – luminescence, BacTiterGlo, counter-screen for streptokinase expression inhibitor project, dose response (AID 1915).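 Note: potency for reduction of bacterial viability or growth.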 The format is functional, organism-based. (In general: The purpose of a counterscreen is to sort out artefacts and off-target activity.)
Test [9] concerns the target T4, Streptokinase A (Streptococcus pyogenes serotype M1, UniProt P10520).
T4 sequence (P10520 whole entry): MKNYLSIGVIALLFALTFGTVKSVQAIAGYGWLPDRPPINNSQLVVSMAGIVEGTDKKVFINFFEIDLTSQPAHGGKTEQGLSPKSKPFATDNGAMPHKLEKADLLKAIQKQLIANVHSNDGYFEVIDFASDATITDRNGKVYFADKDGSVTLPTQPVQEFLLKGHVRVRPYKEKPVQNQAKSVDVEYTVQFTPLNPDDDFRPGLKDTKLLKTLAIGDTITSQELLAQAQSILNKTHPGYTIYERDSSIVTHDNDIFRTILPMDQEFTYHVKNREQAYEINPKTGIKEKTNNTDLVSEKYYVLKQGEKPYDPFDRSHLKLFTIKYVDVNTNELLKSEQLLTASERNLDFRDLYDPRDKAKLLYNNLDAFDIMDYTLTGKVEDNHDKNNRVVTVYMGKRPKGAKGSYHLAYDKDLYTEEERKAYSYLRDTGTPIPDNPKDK
Briefly: viability-normalized secreted streptokinase activity reduction – plasminogen activation absorbance, OD405, dose response (AID 1914).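 Note: secreted streptokinase activity via plasminogen activation per viability signal from cell pellet.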 The format is functional, Streptococcus pyogenes M1 GAS.

For test [10], the system named is Streptococcus sp. 'group A'. Kind of test: Streptococcus pyogenes SK(-)GAS viability under kanamycin – luminescence, BacTiterGlo, confirmation, counter-screen for streptokinase expression inhibitor project, dose response (AID 1900). The format is functional, organism-based.
Test [11] addresses T5, Corticotropin-releasing factor receptor 2/Corticotropin-releasing factor-binding protein (Homo sapiens, UniProt P24387+Q13324).
T5 sequence (Q13324 whole entry): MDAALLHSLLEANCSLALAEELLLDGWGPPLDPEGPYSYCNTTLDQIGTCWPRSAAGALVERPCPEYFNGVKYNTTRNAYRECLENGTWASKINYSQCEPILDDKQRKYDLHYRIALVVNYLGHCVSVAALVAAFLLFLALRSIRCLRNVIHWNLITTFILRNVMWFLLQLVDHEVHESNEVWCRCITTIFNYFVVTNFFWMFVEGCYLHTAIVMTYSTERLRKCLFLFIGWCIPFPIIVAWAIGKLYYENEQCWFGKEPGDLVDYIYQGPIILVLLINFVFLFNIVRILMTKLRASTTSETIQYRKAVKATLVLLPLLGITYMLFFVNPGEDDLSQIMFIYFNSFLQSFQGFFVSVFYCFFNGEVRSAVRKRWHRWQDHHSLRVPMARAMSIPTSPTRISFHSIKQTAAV
T5 sequence (P24387 whole entry): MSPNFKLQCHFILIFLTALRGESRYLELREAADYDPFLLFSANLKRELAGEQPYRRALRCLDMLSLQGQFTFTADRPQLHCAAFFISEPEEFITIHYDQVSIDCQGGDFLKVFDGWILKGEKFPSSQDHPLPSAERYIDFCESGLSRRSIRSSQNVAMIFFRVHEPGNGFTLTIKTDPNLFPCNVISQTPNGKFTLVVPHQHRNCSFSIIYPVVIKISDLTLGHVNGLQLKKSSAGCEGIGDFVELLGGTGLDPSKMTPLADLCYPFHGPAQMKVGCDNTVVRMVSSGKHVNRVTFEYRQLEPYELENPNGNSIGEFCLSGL
Kind of test: activators of CRF receptor 2 with binding protein – uHTS hits, confirmation (AID 602473). The format is functional. The settings on record: read-out: EC50_Mean.

Molecules are shown by their SMILES. The source made the active and inactive calls. Bounds are passed on as bounds.

Sequence of Cytochrome P450 2D6 (P10635 whole entry): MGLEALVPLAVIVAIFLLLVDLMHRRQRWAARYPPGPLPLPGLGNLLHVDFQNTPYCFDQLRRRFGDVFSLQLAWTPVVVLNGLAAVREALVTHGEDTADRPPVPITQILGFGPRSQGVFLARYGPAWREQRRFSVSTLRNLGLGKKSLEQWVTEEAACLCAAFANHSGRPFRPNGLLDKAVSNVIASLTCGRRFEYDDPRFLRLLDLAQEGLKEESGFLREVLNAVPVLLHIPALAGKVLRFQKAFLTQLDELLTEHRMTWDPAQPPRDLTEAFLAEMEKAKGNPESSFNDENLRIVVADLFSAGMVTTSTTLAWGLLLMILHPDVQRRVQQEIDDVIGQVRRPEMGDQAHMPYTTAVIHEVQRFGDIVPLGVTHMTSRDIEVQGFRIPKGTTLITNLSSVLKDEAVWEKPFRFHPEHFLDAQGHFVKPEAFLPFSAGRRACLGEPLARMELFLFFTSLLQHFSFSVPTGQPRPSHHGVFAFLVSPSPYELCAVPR
Sequence of Cytochrome P450 2C9 (P11712 whole entry): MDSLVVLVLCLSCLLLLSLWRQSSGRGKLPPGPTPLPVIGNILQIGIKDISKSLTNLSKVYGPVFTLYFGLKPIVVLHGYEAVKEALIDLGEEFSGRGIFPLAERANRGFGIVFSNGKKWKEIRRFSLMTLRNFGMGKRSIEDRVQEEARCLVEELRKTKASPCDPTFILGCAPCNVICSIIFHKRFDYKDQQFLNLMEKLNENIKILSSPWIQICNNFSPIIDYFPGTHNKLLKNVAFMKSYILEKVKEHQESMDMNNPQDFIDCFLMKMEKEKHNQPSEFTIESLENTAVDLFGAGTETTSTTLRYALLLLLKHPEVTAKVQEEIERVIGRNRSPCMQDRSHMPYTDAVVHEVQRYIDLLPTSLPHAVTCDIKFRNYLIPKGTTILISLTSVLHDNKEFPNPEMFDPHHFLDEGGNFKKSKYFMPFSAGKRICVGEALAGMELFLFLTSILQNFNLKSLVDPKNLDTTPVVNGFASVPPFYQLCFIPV
Sequence of Cytochrome P450 2C19 (P33261 whole entry): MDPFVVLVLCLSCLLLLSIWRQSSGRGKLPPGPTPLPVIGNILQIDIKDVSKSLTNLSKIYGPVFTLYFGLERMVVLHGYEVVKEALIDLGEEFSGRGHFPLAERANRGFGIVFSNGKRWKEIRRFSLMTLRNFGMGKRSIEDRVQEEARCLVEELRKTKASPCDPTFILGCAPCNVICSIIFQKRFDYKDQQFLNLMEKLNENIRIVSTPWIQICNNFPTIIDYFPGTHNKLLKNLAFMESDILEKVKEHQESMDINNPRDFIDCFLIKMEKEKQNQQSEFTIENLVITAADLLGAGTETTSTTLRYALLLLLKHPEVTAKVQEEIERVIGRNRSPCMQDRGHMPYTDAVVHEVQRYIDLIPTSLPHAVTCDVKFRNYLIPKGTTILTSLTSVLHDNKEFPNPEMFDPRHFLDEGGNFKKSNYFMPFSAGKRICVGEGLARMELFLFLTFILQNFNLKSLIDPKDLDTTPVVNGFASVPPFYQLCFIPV

In general, AC50 refers to the concentration at which the activity in the assay is half-maximal. On to `CCOC(=O)c1c(-c2ccc(Cl)cc2)csc1NC(=O)CNCc1ccco1`, for which the AC50 in [1] was 2.72 µM (active).
As usually defined, the IC50 is the concentration that gives 50% inhibition. In the case of `Cc1cc(OCCCCN2C(=O)NC(C)(C)C2=O)cc(C)c1Cl`, the IC50 in test [2] is > 100 µM (inactive).
Turning to `CN(Cc1ccccc1)C(=O)CCn1c(=O)oc2ccccc21`, the EC50 in [3] was > 195 µM (not active).
Turning to `N#Cc1cccc(NC(=O)N2CC[C@@]3(CCCN(S(=O)(=O)c4ccccc4)C3)C2)c1`, the AC50 is 25.1 µM (inconclusive) in test [4], 39.8 µM (inconclusive) in test [5], 39.8 µM (inconclusive) in test [6] and 39.8 µM (inconclusive) in test [7].
As for `OC(c1ccccn1)c1c[nH]c2ccccc12` (stereo not drawn), the IC50 in [2] is > 100 µM (inactive).
Same read-out and setting: in the case of `Cc1ccc(C)c(NC(=O)c2sc(Cl)nc2-c2ccccc2)c1` it was > 100 µM (inactive).
`CCn1c(=O)c(C(=O)Nc2ccccc2F)c(O)c2ccccc21`: the EC50 in test [3] is > 195 µM (not active).
As to `COc1ccc(C2CC(c3ccccc3)=NN2S(=O)(=O)c2ccc(C)cc2)c(OC)c1` (stereo not drawn), the IC50 in test [2] was > 100 µM (inactive).
On the same count and under the same terms, for `O=C(OCC(=O)N1N=C(c2ccc(Cl)cc2)CC1c1ccco1)c1ccccc1O` (stereo not drawn) the value was > 100 µM (inactive).
`CCCCN=C(S)NNc1c(Cl)cc(Cl)cc1Cl`: in [3], the EC50 is > 195 µM (not active).
Same read-out and setting: in the case of `Cn1ccnc1SCC(=O)N(C1CCCCC1)C1CCCCC1` it was > 195 µM (not active); in that of `CC(C)(C)NC(=O)c1cccc(NC(=O)Cc2cccs2)c1`, > 195 µM (not active).
On to `CC(C)c1nc(-c2ccc([N+](=O)[O-])cc2)cs1`, for which the IC50 in test [2] is 13.4 µM (active).
With `O=C(/C=C/c1ccc2c(c1)OCO2)NCCSCc1c(Cl)cccc1Cl`, the AC50 in test [1] was 1.42 µM (active).
Consider `O=C(NC(=S)Nc1ccccc1N1CCCCC1)c1ccc(F)cc1Cl`, for which, in test [1], the AC50 was 1.67 µM (active). Besides, the EC50 in test [8] was > 150 µM (not active); in test [9], 5.06 µM (active); in [10], 3.75 µM (active).
Consider `Cc1ccc(NC(=O)N2CCCC2C(=O)NCC2CCCCC2)cc1` (stereo not drawn), for which the EC50 in test [3] was > 195 µM (not active).
Turning to `Cn1c(=O)c2ncn(CC(=O)Nc3ccc4c5c(cccc35)CC4)c2n(C)c1=O`, the EC50 in test [3] is > 195 µM (not active). In addition, the IC50 in test [2] is > 100 µM (inactive).
In the case of `Cc1cccc(N2CCN(C(c3ccccc3)c3nnnn3CC3CCCO3)CC2)c1C` (stereo not drawn), in test [3], the EC50 is reported as > 195 µM (not active).
As to `CCOC(=O)c1cc(-c2ccco2)nc2c1c(C)nn2-c1ccccc1`, in test [2], the IC50 was > 100 µM (inactive).
`O=C(Nc1ccc(Nc2ccccc2)cc1)Nc1ccccc1Cl`: the AC50 in test [1] was 2.12 µM (active).
Turning to `CCOCC(=O)Nc1cccc(Br)c1`, the IC50 in test [2] is > 100 µM (inactive).
For `O=C(COC(=O)[C@H](Cc1ccccc1)N1C(=O)c2ccccc2C1=O)Nc1ccc2c(c1)OCO2`, the EC50 in [3] is on record as > 195 µM (not active).
Same read-out and setting: in the case of `CC(=O)Nc1cccc(NC(=O)CSc2nnc(Cc3cccn3C)n2-c2ccc(F)cc2)c1` it was > 195 µM (not active); in that of `CC(=O)N(c1ccc2oc(=O)sc2c1)S(=O)(=O)c1ccc(C(=O)O)cc1`, > 195 µM (not active).
As for `Cc1cccc(CC(=O)NCCn2c(C)cc3ccccc32)c1`, in test [2], the IC50 was > 100 µM (inactive).
With `CCCc1ccc(-c2cc(NC(=O)CSc3nnc(N)s3)n(-c3ccccc3)n2)cc1`, the AC50 in test [1] is 3.72 µM (active).
The same measure, in the same setting: in the case of `CN(C)CCNC(=O)c1sc2nc(-c3ccccc3)cc(C(F)(F)F)c2c1N` it was 2.65 µM (active).
Turning to `Cc1ccc(S(=O)(=O)N2CCC(=O)N(C(COCc3ccc(Cl)c(Cl)c3)Cc3ccccc3)CC2)cc1` (stereo not drawn), the EC50 in test [11] was 4.29 µM (active).
As for `COc1ccc(-n2c(C)cc(/C=C3/SC(=S)N(C)C3=O)c2C)cc1`, the EC50 in test [11] was > 53 µM (inactive).
In the case of `Cn1c(N2CCOCC2)nc(-c2ccccc2)c1-c1ccccc1`, the EC50 in test [3] is listed as > 195 µM (not active).
Still for that read-out and setting: in the case of `Nc1nc(Cl)nc(N(c2ccccc2)c2ccccc2)n1` it was > 195 µM (not active).
For `O=C(NCc1cc(C(F)(F)F)ccc1Cl)c1cccc2c1C(=O)c1ccc(N3CCC(Cc4ccccc4)CC3)cc1S2(=O)=O`, in test [11], the EC50 is 5.99 µM (active).
In the case of `COc1ccc(C(=O)c2ccc3oc(-c4ccc(OC)cc4)c(-c4ccc(O)cc4)c3c2)cc1`, in [1], the half-maximal activity concentration (AC50) was 3.31 µM (active).
Regarding `O=c1c2ccccc2oc2ccc(-c3ccc4cc[nH]c4c3)cc12`, the IC50 in [2] was > 100 µM (inactive).
As to `CC(C)CC(C(=O)NCc1ccccn1)N1C(=O)c2ccccc2C1=O` (stereo not drawn), the IC50 in test [2] was > 100 µM (inactive).
Still for that read-out and setting: in the case of `COc1ccc(C(C)=O)cc1CN1C(=O)C(C)ON=C1c1cccc(C(F)(F)F)c1` (stereo not drawn) it was > 100 µM (inactive).
